Test results as given in the supplement of paper PMC10627819.

Tests used:
[1] = tested on: S. aureus Newman; test: Bliss interaction score (quartile over a dose matrix) (fitness difference); higher = more antagonism (negative = synergy)
Method in brief: (§1)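 Quartiles summarise the Bliss score over technical, biological and donor/recipient replicates, where the score is observed minus expected fitness under a product model. Expected fitness uses single-drug values inferred from combination data. Fitness is OD595 at entry into stationary phase over the plate's robust no-drug mean, capped at 1.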

[2] = tested on: S. pneumoniae D39V; test: as above
Method in brief: as §1

[3] = tested on: B. subtilis 168; test: as above
Method in brief: as §1

[4] = tested on: S. aureus DSM 20231; test: as above
Method in brief: as §1

[5] = tested on: S. aureus DSM 20231; test: fitness (endpoint OD595 vs no drug) (fraction); higher = more growth
Method in brief: (§2)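 Fitness was measured as bacterial growth in 384-well plates inoculated at OD595 0.01 (30 µl, or 55 µl for S. pneumoniae). Media were TSB, LB Lennox or CY, at 37 °C. OD595 was read every 30 min for 14 h and background-subtracted against the first reading. Fitness is OD595 at the transition into stationary phase divided by the robust mean of no-drug control wells, capped at 1.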

[6] = tested on: S. aureus Newman; test: as above
Method in brief: as §2

[7] = first compound 0.75 µg/mL, partner 12.5 µg/mL
[8] = first compound 0.75 µg/mL, partner 25 µg/mL
[9] = first compound 0.75 µg/mL, partner 50 µg/mL
[10] = first compound 1.5 µg/mL, partner 12.5 µg/mL
[11] = first compound 1.5 µg/mL, partner 50 µg/mL
[12] = first compound 3 µg/mL, partner 12.5 µg/mL
[13] = first compound 0.75 µg/mL, partner 0.625 µg/mL
[14] = first compound 0.75 µg/mL, partner 1.25 µg/mL
[15] = first compound 0.75 µg/mL, partner 2.5 µg/mL
[16] = first compound 1.5 µg/mL, partner 0.625 µg/mL
[17] = first compound 1.5 µg/mL, partner 1.25 µg/mL
[18] = first compound 1.5 µg/mL, partner 2.5 µg/mL
[19] = first compound 3 µg/mL, partner 0.625 µg/mL
[20] = first compound 3 µg/mL, partner 1.25 µg/mL
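Wherever Bliss interaction score (quartile over a dose matrix) is given: first quartile when negative (synergy) and third quartile when positive (antagonism).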

SMILES: O=C(N[C@H](CO)[C@H](O)c1ccc([N+](=O)[O-])cc1)C(Cl)Cl [Chloramphenicol] + CN(C)C(=O)C(CCN1CCC(O)(c2ccc(Cl)cc2)CC1)(c1ccccc1)c1ccccc1 [Loperamide]
- Bliss interaction score [1]: -0.0555
- Bliss interaction score [2]: 0.146
- Bliss interaction score [3]: -0.18

SMILES: O=C(N[C@H](CO)[C@H](O)c1ccc([N+](=O)[O-])cc1)C(Cl)Cl [Chloramphenicol] + O=C(O[C@@H]1Cc2c(O)cc(O)cc2O[C@@H]1c1cc(O)c(O)c(O)c1)c1cc(O)c(O)c(O)c1 [EGCG]
- Bliss interaction score [4]: 0.0831
- Bliss interaction score [2]: -0.0762
- Bliss interaction score [3]: 0.103
- fitness [5, 7]: 0.653
- fitness [5, 8]: 0.646
- fitness [5, 9]: 0.669
- fitness [5, 10]: 0.56
- fitness ([5]; first compound 1.5 µg/mL, partner 25 µg/mL): 0.572
- fitness [5, 11]: 0.494
- fitness [5, 12]: 0.15
- fitness ([5]; first compound 3 µg/mL, partner 25 µg/mL): 0.136
- fitness ([5]; first compound 3 µg/mL, partner 50 µg/mL): 0.0905
- fitness [6, 7]: 0.649
- fitness [6, 8]: 0.699
- fitness [6, 9]: 0.699
- fitness [6, 10]: 0.602
- fitness [6, 11]: 0.509
- fitness [6, 12]: 0.189

SMILES: O=C(N[C@H](CO)[C@H](O)c1ccc([N+](=O)[O-])cc1)C(Cl)Cl [Chloramphenicol] + C[C@@H](O)[C@H]1C(=O)N2C(C(=O)O)=C(SCCNC=N)C[C@H]12 [Imipenem]
- Bliss interaction score [4]: 0.0442
- Bliss interaction score [1]: -0.0316
- Bliss interaction score [2]: -0.0662

SMILES: O=C(N[C@H](CO)[C@H](O)c1ccc([N+](=O)[O-])cc1)C(Cl)Cl [Chloramphenicol] + CO[C@H]1/C=C/O[C@@]2(C)Oc3c(C)c(O)c4c(O)c(c(/C=N/N5CCN(C)CC5)c(O)c4c3C2=O)NC(=O)/C(C)=C\C=C\[C@H](C)[C@H](O)[C@@H](C)[C@@H](O)[C@@H](C)[C@H](OC(C)=O)[C@@H]1C [Rifampicin]
- Bliss interaction score [4]: 0.0582
- Bliss interaction score [1]: 0.0185
- Bliss interaction score [2]: 0.069

SMILES: O=C(N[C@H](CO)[C@H](O)c1ccc([N+](=O)[O-])cc1)C(Cl)Cl [Chloramphenicol] + O=C1CN(/N=C/c2ccc([N+](=O)[O-])o2)C(=O)N1 [Nitrofurantoin]
- Bliss interaction score [4]: -0.0404
- Bliss interaction score [1]: -0.0842
- Bliss interaction score [2]: -0.157

SMILES: O=C(N[C@H](CO)[C@H](O)c1ccc([N+](=O)[O-])cc1)C(Cl)Cl [Chloramphenicol] + COc1cccc2c1C(=O)c1c(O)c3c(c(O)c1C2=O)C[C@@](O)(C(=O)CO)C[C@@H]3O[C@H]1C[C@H](N)[C@H](O)[C@H](C)O1 [Doxorubicin]
- Bliss interaction score [1]: 0.132
- Bliss interaction score [2]: -0.127
- Bliss interaction score [3]: -0.0604
- fitness [5, 13]: 0.646
- fitness [5, 14]: 0.698
- fitness [5, 15]: 0.663
- fitness [5, 16]: 0.572
- fitness [5, 17]: 0.569
- fitness [5, 18]: 0.525
- fitness [5, 19]: 0.118
- fitness [5, 20]: 0.121
- fitness [6, 13]: 0.676
- fitness [6, 14]: 0.72
- fitness [6, 15]: 0.685
- fitness [6, 16]: 0.564
- fitness [6, 17]: 0.562
- fitness [6, 18]: 0.579
- fitness [6, 19]: 0.326
- fitness [6, 20]: 0.291

SMILES: O=C(N[C@H](CO)[C@H](O)c1ccc([N+](=O)[O-])cc1)C(Cl)Cl [Chloramphenicol] + C[C@H]1COc2c(N3CCN(C)CC3)c(F)cc3c(=O)c(C(=O)O)cn1c23 [Levofloxacin]
- Bliss interaction score [4]: 0.0741
- Bliss interaction score [2]: 0.0655
- Bliss interaction score [3]: 0.0387

SMILES: O=C(N[C@H](CO)[C@H](O)c1ccc([N+](=O)[O-])cc1)C(Cl)Cl [Chloramphenicol] + COc1cc(Cc2cnc(N)nc2N)cc(OC)c1OC [Trimethoprim]
- Bliss interaction score [4]: 0.133
- Bliss interaction score [2]: -0.081
- Bliss interaction score [3]: 0.0616
- fitness ([5]; first compound 0.75 µg/mL, partner 0.125 µg/mL): 0.613
- fitness ([5]; first compound 0.75 µg/mL, partner 0.25 µg/mL): 0.648
- fitness ([5]; first compound 0.75 µg/mL, partner 0.5 µg/mL): 0.48
- fitness ([5]; first compound 0.75 µg/mL, partner 1 µg/mL): 0.0816
- fitness ([5]; first compound 1.5 µg/mL, partner 0.125 µg/mL): 0.499
- fitness ([5]; first compound 1.5 µg/mL, partner 0.25 µg/mL): 0.492
- fitness ([5]; first compound 1.5 µg/mL, partner 0.5 µg/mL): 0.405
- fitness ([5]; first compound 3 µg/mL, partner 0.125 µg/mL): 0.0821
- fitness ([5]; first compound 3 µg/mL, partner 0.25 µg/mL): 0.0908
- fitness ([5]; first compound 3 µg/mL, partner 0.5 µg/mL): 0.0866
- fitness ([5]; first compound 3 µg/mL, partner 1 µg/mL): 0.0882

SMILES: O=C(N[C@H](CO)[C@H](O)c1ccc([N+](=O)[O-])cc1)C(Cl)Cl [Chloramphenicol] + Cc1ncc([N+](=O)[O-])n1CCO [Metronidazole]
- Bliss interaction score [1]: -0.07
- Bliss interaction score [2]: 0.0867
- Bliss interaction score [3]: 0.0423
- fitness [5, 13]: 0.775
- fitness [5, 14]: 0.736
- fitness [5, 15]: 0.755
- fitness [6, 13]: 0.796
- fitness ([6]; first compound 0.75 µg/mL, partner 0.781 µg/mL): 0.789
- fitness [6, 14]: 0.819
- fitness ([6]; first compound 0.75 µg/mL, partner 1.562 µg/mL): 0.768
- fitness [6, 15]: 0.853
- fitness ([6]; first compound 0.75 µg/mL, partner 3.124 µg/mL): 0.752
- fitness [6, 16]: 0.555
- fitness ([6]; first compound 1.5 µg/mL, partner 0.781 µg/mL): 0.539
- fitness [6, 17]: 0.573
- fitness ([6]; first compound 1.5 µg/mL, partner 1.562 µg/mL): 0.527
- fitness [6, 18]: 0.564
- fitness ([6]; first compound 1.5 µg/mL, partner 3.124 µg/mL): 0.521
- fitness [6, 19]: 0.159
- fitness [6, 20]: 0.167
- fitness ([6]; first compound 3 µg/mL, partner 1.562 µg/mL): 0.172
- fitness ([6]; first compound 3 µg/mL, partner 3.124 µg/mL): 0.231

SMILES: CCC[C@@H]1C[C@@H](C(=O)N[C@@H]([C@H]2O[C@H](SC)[C@H](O)[C@@H](O)[C@H]2O)[C@H](C)Cl)N(C)C1 [Clindamycin] + CC(C)Cc1ccc(C(C)C(=O)O)cc1 [Ibuprofen]
- Bliss interaction score [4]: -0.231
